Laboratory results taken from US6855546B1, “Controlling availability or activity of proteins by use of protease inhibitors or receptor fragments” (Universiteit Utrecht, priority 1999, dated 2005).
Where a SMILES comes first, the peptide text is derived from it. The star is where a group is joined. Cbz = O=C(OCc1ccccc1)*

Columns and labels:
Type in all cases: cell-based, Chinese hamster
[1] = system: CHO-ts20 cells expressing GHR; test: 125I-GH uptake (internalization) kinetic experiment; conditions: inhibitor 20 mM added 3 hours before; 125I-GH 8 nM bound on ice, incubated at 30° C.
Experimental: FIG. 2. […] CHO-ts20 cells were incubated with or without inhibitors for 3 hours at 30° C., and put on ice for 60 minutes with ^125I-GH. The cells were then incubated at 30° C. as indicated. Background label was determined in untransfected cells and subtracted. Plotted are the amounts of ^125I-GH internalized as a percentage of the cell-associated radioactivity at the start of incubation. □, control (1% ethanol); ●, MG132; ◯, lactocystin; X, lactacystin β-lactone.
To confirm and quantify the effect of the proteasome inhibitors, we measured the uptake of ^125I-GH in a kinetic experiment. Cells were pretreated with the inhibitors, ^125I-GH was bound on ice, and cells were incubated for various periods of time (FIG. 2). At the end of the incubation period, uptake was determined by washing the cells at low pH to remove the label from the cell surface. Again, GH uptake was inhibited by the proteasome inhibitors: MG132 and lactacystin b-lactone reduced the uptake to approximately 25% of the control level. […] TCA-soluble radioactivity in the culture medium, derived from lysosomal degradation of ^125I-GH, increased after 15 minutes if no inhibitor was added; virtually no TCA-soluble radioactivity appeared if the inhibitors were present (not shown).
GH binding and internalization. ^125I-hGH was prepared using chloramine T (28). For internalization studies, cells were grown in 35 mm dishes, washed with aMEM, supplemented with 20 mM HEPES, incubated for 1 hour at 30° C. in aMEM/HEPES, ^125I-GH (8 nM) was bound on ice for 60 minutes in the absence or presence of excess unlabeled GH, and the cells were washed free of unbound GH and incubated for 0 to 60 minutes. If indicated, lactacystin or its b-lactone (20 mM), MG132 (20 mM), and ZL3vinylsulfone (20 mM), dissolved in either ethanol or dimethylsulfoxide, or only vehicle, were added 3 hours before the start of the experiment. Membrane-associated GH was removed by acid wash (0.15 M NaCl, 0.05 M glycine, pH 2.5) (29) and internalized GH was determined by measuring the radioactivity after solubilization of the acid-treated cells by 1 M NaOH.

[2] = system: CHO-ts20 cells expressing the rabbit GHR; test: Cy3-GH endocytosis by confocal microscopy, wild-type GHR; conditions: 20 mM inhibitor 3 hours at 30° C., then Cy3-GH 30 minutes
Experimental: FIG. 1. Effect of proteasome inhibitors on Cy3-GH and Cy3-transferrin endocytosis. CHO-ts20 cells, expressing either wild-type (A, D, G, C, F, I) or truncated GHR (B, E, H), were incubated with vehicle (A-C) or with 20 mM MG132 (D-F) or 20 mM lactacystin (G-I) for 3 hours at 30° C.; then Cy3-GH (A, B, D, E, G, H), or Cy3-transferrin (C, F, I) were added for 30 minutes, and the cells were washed, fixed and the fluorescence was visualized by confocal microscopy. If excess labeled ligand was added, no uptake was observed. If the cells in D, G were treated at pH 2.5 before fixation, virtually no label was visible (not shown).
Down-regulation of signal-transducing membrane receptors is part of highly programmed cascades of events leading both to extinction of the signaling pathway(s) and to rapid degradation of the primary messenger: the receptor and its ligand (3, 4, 5, 6, 7). In the absence of ligand, the half-life of GHR is approximately 1 to 2 hours depending on the cell system used. The assumption is that this is mainly due to a proteolytic cleavage in the extracellular domain of the GHR resulting in soluble GH-binding protein (8). If ligand is present, a completely different scenario follows: two GHR polypeptides dimerize, they are phosphorylated by the tyrosine kinase Jak2 and ubiquitinated, and the complex is endocytosed. […]

[3] = system: cell-surface GHR in CHO-ts20 cells; test: Degradation of cell-surface biotinylated GHR
Experimental: (§1) FIG. 3. Effect of MG132 on GHR degradation in the presence of ligand. A. Cells were pulse labeled with ^35S-methionine and then chased in unlabeled methionine in the presence of 16 nM GH with or without MG132 for the times indicated. GHR was immunoprecipitated using an anti-cytosolic tail antibody. The radioactivity in the mature (upper) band (inset) was quantitated and plotted. □, control (1% ethanol); ●, MG132. B. Cells were biotinylated and incubated in the presence of GH with MG132 or with vehicle only at 30° C. for the time periods indicated. After streptavidin-bead purification aliquots of the cell lysates were analyzed by SDS-PAGF; western blots were incubated with a monoclonal antibody specific for the extracellular GHR domain and detected with enhanced chemifluorescence. The sharp band below the mature GHR (130 kDa) originated from a slight background staining of precursor GHR (110 kDa), due to incomplete removal of biotinylation reagent at cell lysis.
If proteasome inhibitors affect GHR-uptake, it is expected that the inhibitors prolong the lifetime of GHRs at the cell surface. To address this, we measured the effect of MG132 in a pulse-chase experiment. […] To assess the effect of MG132 more directly, we measured degradation of cell-surface biotinylated GHR after incubation in the presence of ligand (FIG. 3B). […] However, clearance from the cell surface was reduced >50% in the presence of MG132. […] The lifetime of this species was extended in the presence of MG132. Attempts to accumulate this species or other degradation products failed until now.
Cell surface biotinylation. CHO-ts20 cells, grown in 35 mm dishes, were incubated for 60 minutes at 30° C. in aMEN/HEPES, biotinylated on ice for 30 minutes using sulfo-NHS-SS-biotin (Pierce, Rockford, Ill.), and washed free of biotinylating reagents. For GH binding, the cells were incubated for 1 hour on ice in the presence of 16 nM GH with either 20 mM MG132 or 1% ethanol. The incubation was continued at 30° C. for various time periods in the presence of GH with MG132 or ethanol only. […]

[4] = system: GHR in CHO-ts20 cells (temperature-sensitive E1); test: GH-induced GHR degradation, quantitative western blot, CHO-ts20; conditions: 3 hours
Experimental: (§2) FIG. 4. GH-induced receptor degradation depends on an intact ubiquitin conjugation system. CHO-ts20 and CHO-E36 cells were incubated at the permissive or non-permissive temperature for 3 hours in the presence or absence of GH. Cells were lysed and aliquots were analyzed by western blotting and enhanced chemifluorescence. M, mature GHR, P, precursor GHR.
(§3) To investigate whether the ubiquitin system selects the GHR for truncation by the proteasome, we expressed the receptor in CHO-ts20 cells harboring a temperature-sensitive ubiquitin-activating enzyme, E1. The cells were incubated for 60 minutes at 42° C. (sufficient to stop generation of newly ubiquitinated proteins), followed by 3 hours at 40° C. in the presence or absence of GH, and the amounts of GHR were determined by quantitative western blot analysis (FIG. 4). At the permissive temperature, incubation in the presence of GH decreased the steady-state amounts of GHR. If the cells were kept at 40° C. in the presence of GH, the amount of GHR increased to 170%. To ascertain that this increase is solely due to a defective ubiquitin conjugation system, we used the CHO-E36 cells with an intact ubiquitin conjugation system at 40° C. As expected, in these cells the steady state of mature GHR decreased to approximately 50% of that without GH, both at 30 and 40° C. […]

GHR in CHO-E36 cells = test: GH-induced GHR degradation, quantitative western blot, CHO-E36; conditions: CHO-E36, both at 30 and 40° C.
Experimental: as §2, §3

[5] = system: mature GHR in CHO-ts20 cells; test: 35S-methionine pulse-chase of GHR in the presence of GH; conditions: 16 nM GH
Experimental: as §1, with “The sharp band below the mature GHR (130 kDa) originated from a slight background staining of precursor GHR (110 kDa), due to incomplete removal of biotinylation reagent at cell lysis.” left out
If proteasome inhibitors affect GHR-uptake, it is expected that the inhibitors prolong the lifetime of GHRs at the cell surface. To address this, we measured the effect of MG132 in a pulse-chase experiment. […] To assess the effect of MG132 more directly, we measured degradation of cell-surface biotinylated GHR after incubation in the presence of ligand (FIG. 3B). […]
Metabolic labeling. […] The radioactivity was determined using a Molecular Dynamics phosphoimager (STORM860 equipped with ImageQuant software, Molecular Dynamics, Sunnyvale, Calif.). […]

Q: For `CC(C)[C@H](O)[C@@]12NC(=O)[C@H](C)[C@@H]1OC2=O` [lactacystin b-lactone], which “125I-GH uptake relative to control” value [1] is on record?
A: The value was “approximately 25 % of the control level”.

Q: Which “Cy3-GH uptake (intracellular fluorescent label)” value [2] does the source give for `CC(=O)N[C@@H](CSC(=O)[C@]1([C@@H](O)C(C)C)NC(=O)[C@H](C)[C@@H]1O)C(=O)O` [lactacystin] here?
A: The value was “hardly any label was present intracellularly”.

Q: And the “125I-GH uptake relative to control” value [1]?
A: The value was “somewhat less effective”.

Q: Which results are given for “GH: growth hormone, ligand of the growth hormone receptor”?
A: disappearance of cell-surface biotinylated GHR ([3]; incubation in the presence of ligand, 30° C.): induced a rapid disappearance of the GHR; amount of GHR in the presence of GH (percentage of mature GHR present without GH) ([4]; CHO-ts20, 40° C. (non-permissive)): 170%; steady-state amount of GHR in the presence of GH ([4]; CHO-ts20, permissive temperature): decreased; steady state of mature GHR relative to that without GH (GHR in CHO-E36 cells): approximately 50%

Q: How did the “Cy3-GH uptake (intracellular fluorescent label)” value [2] turn out when `CC(C)C[C@@H](C=O)NC(=O)[C@H](CC(C)C)NC(=O)[C@H](CC(C)C)NC(=O)OCc1ccccc1` [MG132] (Cbz-Leu-Leu-Leu-aldehyde) was run?
A: The value was “hardly any label was present intracellularly”.

Q: What about the “125I-GH uptake relative to control” value [1] of the same compound?
A: Its value is “approximately 25 % of the control level”.

Q: And the “degradation rate of mature GHR” value [5]?
A: Its value is “affects the degradation rate of mature GHR”.

Q: And the “membrane transport from ER to the Golgi complex (maturation kinetics 110 kDa to 130 kDa)” value [5]?
A: Its value is “does not affect membrane transport from ER to the Golgi complex”.

Q: And the “lifetime of biotinylated 85-kDa intermediate degradation product” value ([3]; in the presence of GH)?
A: Its value is “extended”.

Q: What about the “reduction of GHR clearance from the cell surface” value ([3]; in the presence of GH (16 nM), 20 mM MG132, 30° C.) of the same compound?
A: Its value is over 50%.
